According to ChEMBL document CHEMBL1156873 (Bioorg Med Chem Lett, 2010):
Activity calls are given as the source filed them. The rule behind the calls is not given here.

What was measured:
LNCaP = test: Cytotoxicity against human LNCAP cells; format: functional, cell-based
[1] = Half life in nude mouse microsomes; format: ADME, Microsome
[2] = Half life in human microsomes; format: ADME, Microsome
[3] = target: Serine/threonine-protein kinase mTOR (Homo sapiens, UniProt P42345); test: Inhibition of mTOR
Mus musculus [4] = test: Inhibition of mTOR in nude mouse bearing human MDA-MB-361 cells assessed as reduction of phosphorylated S6K (T389) level at 25 mg/kg, iv after 8 hrs; format: functional, organism-based; design: dose 25 mg/kg
Mus musculus [5] = test: Inhibition of mTOR in nude mouse bearing human MDA-MB-361 cells assessed as reduction of phosphorylated AKT (S473) level at 25 mg/kg, iv after 8 hrs; format: functional, organism-based; design: dose 25 mg/kg
Mus musculus [6] = test: Inhibition of mTOR in nude mouse bearing human MDA-MB-361 cells assessed as reduction of phosphorylated S6 (S240/244) level at 25 mg/kg, iv after 8 hrs; format: functional, organism-based; design: dose 25 mg/kg
MDA-MB-361 [7] = test: Antitumor activity against human MDA-MB-361 cells xenografted in nude mouse assessed as inhibition of tumor growth at 10 mg/kg, po daily once for 5 days measured up to 17 days; format: functional, organism-based; design: dose 10 mg/kg
MDA-MB-361 [8] = test: Antitumor activity against human MDA-MB-361 cells xenografted in nude mouse assessed as inhibition of tumor growth at 20 mg/kg, po daily once for 5 days measured up to 17 days; format: functional, organism-based; design: dose 20 mg/kg
Mus musculus [9] = test: Toxicity in nude mouse assessed as body weight change at 10 mg/kg, po daily once for 5 days; format: organism-based; design: dose 10 mg/kg, route oral; details: in vivo, 120 h
Mus musculus [10] = test: Toxicity in nude mouse assessed as body weight change at 20 mg/kg, po daily once for 5 days; format: organism-based; design: dose 20 mg/kg, route oral; details: in vivo, 120 h

Compound	half-life [1] [min]	half-life [2] [min]	IC50 [3] [nM]	IC50 (LNCaP) [nM]	further results
O=C(Nc1ccc(-c2nc(N3CC4CCC(C3)O4)c3cnn(C4CCC5(CC4)OCCO5)c3n2)cc1)Nc1cccnc1	> 30	13	0.12	1	–
CCNC(=O)Nc1ccc(-c2nc(N3CC4CCC(C3)O4)c3cnn(C4CCC5(CC4)OCCO5)c3n2)cc1	27	10	–	1	–
O=C(Nc1ccccc1)Nc1ccc(-c2nc(N3CC4CCC(C3)O4)c3cnn(C4CCC5(CC4)OCCO5)c3n2)cc1	> 30	13	0.16	4	–
O=C(Nc1ccc(-c2nc(N3CC4CCC(C3)O4)c3cnn(C4CCC5(CC4)OCCO5)c3n2)cc1)NC1CC1	25	9	–	2	–
CNC(=O)Nc1ccc(-c2nc(N3CC4CCC(C3)O4)c3cnn(C4CCN(C(=O)OC(C)C)CC4)c3n2)cc1	21	–	0.19	6	–
CNC(=O)Nc1ccc(-c2nc(N3CC4CCC(C3)O4)c3cnn(C4CCC5(CC4)OCCCO5)c3n2)cc1	> 30	> 30	–	8	–
CNC(=O)Nc1ccc(-c2nc(N3CC4CCC(C3)O4)c3cnn(C4CCC5(CC4)OCCO5)c3n2)cc1	> 30	26	–	2	Activity (Mus musculus [4]): Active; Activity (Mus musculus [5]): Active; Activity (Mus musculus [6]): Active; Activity (MDA-MB-361 [7]): Active; Activity (MDA-MB-361 [8]): Active; Activity (Mus musculus [9]): Non-toxic; Activity (Mus musculus [10]): Non-toxic
O=C(Nc1ccncc1)Nc1ccc(-c2nc(N3CC4CCC(C3)O4)c3cnn(C4CCC5(CC4)OCCO5)c3n2)cc1	> 30	13	0.12	1	–
O=C(NCCF)Nc1ccc(-c2nc(N3CC4CCC(C3)O4)c3cnn(C4CCC5(CC4)OCCO5)c3n2)cc1	> 30	16	0.22	1	–
CNC(=O)Nc1ccc(-c2nc(N3CC4CCC(C3)O4)c3cnn(CCO)c3n2)cc1	–	–	–	650	–
CNC(=O)Nc1ccc(-c2nc(N3CC4CCC(C3)O4)c3cnn(C4CCN(C(=O)OC(C)(C)C)CC4)c3n2)cc1	11	–	0.26	27	–

Continued, in another order:

half-life [1] [min]	half-life [2] [min]	IC50 [3] [nM]	Compound	IC50 (LNCaP) [nM]	further results
15	30	–	CNC(=O)Nc1ccc(-c2nc(N3CC4CCC(C3)O4)c3cnn(C4CCC(OC)(OC)CC4)c3n2)cc1	2	–
17	–	–	CNC(=O)Nc1ccc(-c2nc(N3CC4CCC(C3)O4)c3cnn([C@H]4CC[C@@H](OC)CC4)c3n2)cc1	1	–
> 30	12	0.12	CNC(=O)Nc1ccc(-c2nc(N3CC4CCC(C3)O4)c3cnn(C(C)C)c3n2)cc1	5	–
> 30	> 30	0.24	CNC(=O)Nc1ccc(-c2nc(N3CC4CCC(C3)O4)c3cnn([C@H]4CC[C@H](O)CC4)c3n2)cc1	20	–
> 30	–	1.34	CNC(=O)Nc1ccc(-c2nc(N3CC4CCC(C3)O4)c3cnn(C)c3n2)cc1	170	–
> 30	> 30	0.3	CNC(=O)Nc1ccc(-c2nc(N3CC4CCC(C3)O4)c3cnn([C@H]4CC[C@@H](O)CC4)c3n2)cc1	20	–
> 30	5	–	CNC(=O)Nc1ccc(-c2nc(N3CC4CCC(C3)O4)c3cnn(CC(F)(F)F)c3n2)cc1	38	–
20	10	–	CNC(=O)Nc1ccc(-c2nc(N3CC4CCC(C3)O4)c3cnn(C4CCC(=O)CC4)c3n2)cc1	32	–
> 30	–	0.74	CCn1ncc2c(N3CC4CCC(C3)O4)nc(-c3ccc(NC(=O)NC)cc3)nc21	70	–
> 30	15	0.38	CNC(=O)Nc1ccc(-c2nc(N3CC4CCC(C3)O4)c3cnn([C@H]4CC[C@H](OC)CC4)c3n2)cc1	2	–
5	–	–	CNC(=O)Nc1ccc(-c2nc(N3CC4CCC(C3)O4)c3cnn(CCN(C)C)c3n2)cc1	400	–
> 30	–	–	CNC(=O)Nc1ccc(-c2nc(N3CC4CCC(C3)O4)c3cnn(C4CCN(C(=O)OC)CC4)c3n2)cc1	26	–
